# Measured values as given in PubChem BioAssay AID2060328 (Molecular Pharmacology Branch, DTP, NCI, 2025).
# System: MDA-MB-231 multicell spheroids, viability (%T/C)
# Test: Anticancer human tumor MDA-MB-231 cell line growth inhibition [IpAb];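 note: viability read after seven days of drug exposure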;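 for viability, T/C: 100% = DMSO vehicle control viability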
# Details: for IC50: curve of first compound; for viability, T/C: stronger effect = lower value
# From the text: Combinatorial screen of targeted agents with ipatasertib and abemaciclib in multi-cell type tumor spheroids
# A high-throughput screen of multi-cell type tumor spheroids was designed to identify active combinations of targeted small molecules and ipatasertib or abemaciclib. Complex spheroids include a stromal component modeled by human endothelial cells (HUVEC) and fibroblasts modeled by human mesenchymal stem cells (MSCs). The concentration ranges selected for each drug and investigational agent were based upon clinically achievable concentrations if the clinical Cmax of the agent was known.
# Compounds. The drugs and investigational agents: ipatasertib (NSC767898), abemaciclib(NSC768073), selumetinib (NSC741078), trametinib (758246), adavosertib (NSC754352), everolimus (NSC733504), sapanisertib (NSC764658), vemurafenib (NSC761431), venetoclax (NSC766270), copanlisib (NSC809693), apelisib (NSC765974), palbociblib (NSC758247), vemurafenib (NSC761431), dabrafenib (NSC764134), ravoxertinib (NSC781343), BMS-387032 (NSC767048), sotorasib (NSC818433), talazoparib (NSC767125) and afursertib (NSC778305), were obtained from the National Cancer Institute (NCI) Developmental Therapeutics Program Chemical Repository. The FDA-approved anticancer drug set is available from the NCI Developmental Therapeutics Program. […] The stock solutions were prepared in dimethyl sulfoxide (DMSO, Sigma-Aldrich, St. Louis, MO, cat. D2650) at 800-fold the tested concentration and stored at -70 degrees C prior to their use. All drugs and investigational agents were tested over a range starting from a high concentration at or near the clinical Cmax and decreasing in half-log increments. If the clinical Cmax for an agent had not been determined, the highest concentration tested was 10 microM.
# NCI60 Cell Culture. NCI60 cell lines were obtained from the NCI Developmental Therapeutics Program Tumor Repository. For each lot of cells, the Repository performed Applied Biosystems AmpFLSTR Identifiler testing with PCR amplification to confirm consistency with the published Identifier STR profile for each cell line. Cells were kept in continuous culture for no more than 20 passages. The optimal seeding densities for each of the cell lines at each time point assessed were determined prior to performing the concentration response studies. Briefly, the NCI60 human tumor lines were grown as monolayers in RPMI 1640 medium supplemented with 10% FBS and 2 mmol/L L-glutamine.
# An additional 9 lines were from the NCI60 cell line panel including MDA-MB-231 breast carcinoma, MDA-MB-468 breast carcinoma, MCF7 breast carcinoma, Hs578T breast carcinoma, MALME-3M melanoma, SK-MEL-2 melanoma, SK-OV-3 ovarian carcinoma, DU-145 prostate carcinoma, PC-3 prostate carcinoma, all cell lines along with major genetic alterations are listed on Table 2. Pooled donor human umbilical vein endothelial cells (HUVEC, Lonza, cat. CC-2519) and human mesenchymal stem cells (hMSC, Lonza, cat. PT-2501) were purchased from Lonza (Walkersville, MD).
# PDMR cell lines were grown in complete medium (DC medium): Dulbecco's modified Eagle's medium (DMEM)/F12 supplemented with 5% fetal bovine serum (FBS), 2 mM L-glutamine, 100 U/mL penicillin and 100 µg/ml streptomycin, 0.4 µg/ml hydrocortisone, 10 ng/ml epidermal growth factor (EGF) recombinant human protein, 24 µg/mL adenine, and 0.1 mg/mL primocin. During culture from frozen stock vials, PDMR cells were cultured in the same medium containing 10 µM Y-27632 (see Table 3). The PDCs were cultured in complete DMEM/F12 media without 10 microM Y-27632 dihydrochloride for at least two passages prior to the screen. The pooled donor HUVEC and hMSC were cultured in endothelial cell growth medium 2 (PromoCell, Heidelberg, Germany, cat. C-22011) and mesenchymal stem cell growth medium 2 (PromoCell, cat. C-28009), respectively. For all experiments, HUVEC and hMSC were used at passages </=5.
# […]
# [1] = second compound 0.1 µM, first compound 0.0316 µM
# [2] = second compound 0.1 µM, first compound 0.1 µM
# [3] = second compound 0.1 µM, first compound 0.316 µM
# [4] = second compound 0.1 µM, first compound 1 µM
# [5] = second compound 0.316 µM, first compound 0.0316 µM
# [6] = second compound 0.316 µM, first compound 0.1 µM
# [7] = second compound 0.316 µM, first compound 0.316 µM
# [8] = second compound 0.316 µM, first compound 1 µM
# [9] = second compound 1 µM, first compound 0.0316 µM
# [10] = second compound 1 µM, first compound 0.1 µM
# [11] = second compound 1 µM, first compound 0.316 µM
# [12] = second compound 1 µM, first compound 1 µM
# [13] = second compound 3.16 µM, first compound 0.0316 µM
# [14] = second compound 3.16 µM, first compound 0.1 µM
# [15] = second compound 3.16 µM, first compound 0.316 µM
# [16] = second compound 3.16 µM, first compound 1 µM
# [17] = second compound 10 µM, first compound 0.0316 µM
# [18] = second compound 10 µM, first compound 0.1 µM
# [19] = second compound 10 µM, first compound 0.316 µM
# [20] = second compound 10 µM, first compound 1 µM
compound,measurement,setting,value
CC(=O)c1c(C)c2cnc(Nc3ccc(N4CCNCC4)cn3)nc2n(C2CCCC2)c1=O + CC(C)NCC(C(=O)N1CCN(c2ncnc3c2C(C)CC3O)CC1)c1ccc(Cl)cc1,IC50,second compound 0.1 µM,0.0351 µM
same,IC50,second compound 0.316 µM,0.0173 µM
same,IC50,second compound 1 µM,0.00721 µM
same,IC50,second compound 3.16 µM,0.00128 µM
same,IC50,second compound 10 µM,< 0.000949 µM
same,"viability, T/C","second compound 0.1 µM, first compound 0.000949 µM",93.3%
same,"viability, T/C","second compound 0.1 µM, first compound 0.003 µM",89.6%
same,"viability, T/C","second compound 0.1 µM, first compound 0.00949 µM",67.7%
same,"viability, T/C","second compound 0.1 µM, first compound 0.03 µM",53%
same,"viability, T/C","second compound 0.1 µM, first compound 0.0949 µM",40.3%
same,"viability, T/C","second compound 0.1 µM, first compound 0.3 µM",35%
same,"viability, T/C","second compound 0.316 µM, first compound 0.000949 µM",82.4%
same,"viability, T/C","second compound 0.316 µM, first compound 0.003 µM",73.8%
same,"viability, T/C","second compound 0.316 µM, first compound 0.00949 µM",58.9%
same,"viability, T/C","second compound 0.316 µM, first compound 0.03 µM",42%
same,"viability, T/C","second compound 0.316 µM, first compound 0.0949 µM",34.4%
same,"viability, T/C","second compound 0.316 µM, first compound 0.3 µM",32%
same,"viability, T/C","second compound 1 µM, first compound 0.000949 µM",69%
same,"viability, T/C","second compound 1 µM, first compound 0.003 µM",60.9%
same,"viability, T/C","second compound 1 µM, first compound 0.00949 µM",45.9%
same,"viability, T/C","second compound 1 µM, first compound 0.03 µM",36%
same,"viability, T/C","second compound 1 µM, first compound 0.0949 µM",26.9%
same,"viability, T/C","second compound 1 µM, first compound 0.3 µM",26.3%
same,"viability, T/C","second compound 3.16 µM, first compound 0.000949 µM",50.4%
same,"viability, T/C","second compound 3.16 µM, first compound 0.003 µM",47.5%
same,"viability, T/C","second compound 3.16 µM, first compound 0.00949 µM",39.5%
same,"viability, T/C","second compound 3.16 µM, first compound 0.03 µM",29.1%
same,"viability, T/C","second compound 3.16 µM, first compound 0.0949 µM",25.5%
same,"viability, T/C","second compound 3.16 µM, first compound 0.3 µM",22.2%
same,"viability, T/C","second compound 10 µM, first compound 0.000949 µM",38.5%
same,"viability, T/C","second compound 10 µM, first compound 0.003 µM",33.9%
same,"viability, T/C","second compound 10 µM, first compound 0.00949 µM",27.2%
same,"viability, T/C","second compound 10 µM, first compound 0.03 µM",24.7%
same,"viability, T/C","second compound 10 µM, first compound 0.0949 µM",22.4%
same,"viability, T/C","second compound 10 µM, first compound 0.3 µM",20.3%
COc1c(OCCCN2CCOCC2)ccc2c3n(c(=NC(=O)c4cnc(N)nc4)nc12)CCN3 + CC(C)NCC(C(=O)N1CCN(c2ncnc3c2C(C)CC3O)CC1)c1ccc(Cl)cc1,IC50,second compound 0.1 µM,0.0509 µM
same,IC50,second compound 0.316 µM,0.0277 µM
same,IC50,second compound 1 µM,0.0161 µM
same,IC50,second compound 3.16 µM,0.0047 µM
same,IC50,second compound 10 µM,< 0.00316 µM
same,"viability, T/C","second compound 0.1 µM, first compound 0.00316 µM",85.3%
same,"viability, T/C","second compound 0.1 µM, first compound 0.01 µM",70.1%
same,"viability, T/C",[1],57.4%
same,"viability, T/C",[2],42.3%
same,"viability, T/C",[3],34.1%
same,"viability, T/C",[4],40.3%
same,"viability, T/C","second compound 0.316 µM, first compound 0.00316 µM",71%
same,"viability, T/C","second compound 0.316 µM, first compound 0.01 µM",59.4%
same,"viability, T/C",[5],51.7%
same,"viability, T/C",[6],37.5%
same,"viability, T/C",[7],31.7%
same,"viability, T/C",[8],41%
same,"viability, T/C","second compound 1 µM, first compound 0.00316 µM",62.6%
same,"viability, T/C","second compound 1 µM, first compound 0.01 µM",54.4%
same,"viability, T/C",[9],43.9%
same,"viability, T/C",[10],36.3%
same,"viability, T/C",[11],28.2%
same,"viability, T/C",[12],41.9%
same,"viability, T/C","second compound 3.16 µM, first compound 0.00316 µM",52.1%
same,"viability, T/C","second compound 3.16 µM, first compound 0.01 µM",47%
same,"viability, T/C",[13],37.1%
same,"viability, T/C",[14],30.4%
same,"viability, T/C",[15],25.2%
same,"viability, T/C",[16],32.5%
same,"viability, T/C","second compound 10 µM, first compound 0.00316 µM",33.6%
same,"viability, T/C","second compound 10 µM, first compound 0.01 µM",31.9%
same,"viability, T/C",[17],28.2%
same,"viability, T/C",[18],22.6%
same,"viability, T/C",[19],20%
same,"viability, T/C",[20],31.1%
Cc1nc(NC(=O)N2CCCC2C(N)=O)sc1-c1ccnc(C(C)(C)C(F)(F)F)c1 (stereo not given) + CC(C)NCC(C(=O)N1CCN(c2ncnc3c2C(C)CC3O)CC1)c1ccc(Cl)cc1,IC50,second compound 0.1 µM,> 10 µM
same,IC50,second compound 0.316 µM,> 10 µM
same,IC50,second compound 1 µM,> 10 µM
same,IC50,second compound 3.16 µM,< 0.0316 µM
same,IC50,second compound 10 µM,< 0.0316 µM
same,"viability, T/C",[1],84.1%
same,"viability, T/C",[2],71.3%
same,"viability, T/C",[3],64.7%
same,"viability, T/C",[4],71.8%
same,"viability, T/C","second compound 0.1 µM, first compound 3.16 µM",71.4%
same,"viability, T/C","second compound 0.1 µM, first compound 10 µM",62.5%
same,"viability, T/C",[5],74.8%
same,"viability, T/C",[6],63.7%
same,"viability, T/C",[7],58.3%
same,"viability, T/C",[8],59.9%
same,"viability, T/C","second compound 0.316 µM, first compound 3.16 µM",64.8%
same,"viability, T/C","second compound 0.316 µM, first compound 10 µM",60.8%
same,"viability, T/C",[9],63.1%
same,"viability, T/C",[10],58.7%
same,"viability, T/C",[11],55.3%
same,"viability, T/C",[12],55.3%
same,"viability, T/C","second compound 1 µM, first compound 3.16 µM",58%
same,"viability, T/C","second compound 1 µM, first compound 10 µM",55.8%
same,"viability, T/C",[13],50.7%
same,"viability, T/C",[14],45.8%
same,"viability, T/C",[15],41.4%
same,"viability, T/C",[16],46%
same,"viability, T/C","second compound 3.16 µM, first compound 3.16 µM",46.1%
same,"viability, T/C","second compound 3.16 µM, first compound 10 µM",42.6%
same,"viability, T/C",[17],35.2%
same,"viability, T/C",[18],33.1%
same,"viability, T/C",[19],31.6%
same,"viability, T/C",[20],33.1%
same,"viability, T/C","second compound 10 µM, first compound 3.16 µM",37.8%
same,"viability, T/C","second compound 10 µM, first compound 10 µM",32.8%
